# Results: US8916599B2, “1H-benz imidazole-5-carboxamides as anti-inflammatory agents” (Orexo AB, priority 2008, dated 2014)
# Target: T1, recombinant human mPGES-1 (Homo sapiens, UniProt O14684)
# T1 construct: made in house; host or cells: Rosetta E. coli (microsomal/membrane fraction)
# T1 sequence (O14684 1-152): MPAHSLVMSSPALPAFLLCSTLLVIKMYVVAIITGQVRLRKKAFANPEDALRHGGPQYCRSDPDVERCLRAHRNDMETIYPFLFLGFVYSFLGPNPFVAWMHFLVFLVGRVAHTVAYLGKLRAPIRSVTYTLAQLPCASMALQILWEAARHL
# Experiment: mPGES-1 inhibition test (microsomes, PGH2 substrate, HTRF detection of PGE2)
# Type: biochemical
# Details: inhibition of mPGES-1 at 1 μM (marked in cell)
# Procedure, shortened: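 Microsomes from E. coli Rosetta expressing the enzyme, in 0.1 M KPi pH 7.4 with 2.5 mM GSH, were preincubated 25 min at room temperature with inhibitor in DMSO. PGH2 was added, the reaction stopped after one minute with acidified FeCl2, and PGE2 quantified by HTRF after 750-fold dilution.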
row,inhibition at 1 µM,Structure (SMILES)
1,100%,"COc1cc2c(cc1C(=O)Nc1ccc(Br)cc1)nc(Nc1cc(F)ccc1C(F)(F)F)n2C [Example 642, 2-(5-Fluoro-2-trifluoromethyl-phenylamino)-N-(4-bromphenyl)-6-methoxy-1-methyl-1H-benzimidazol-5-carboxamide]"

# Same assay, conditions: inhibition of mPGES-1 at 10 μM
row,inhibition at 10 µM,Structure (SMILES)
1,90%,"O=C(NC1Cc2ccccc2C1)c1cc2nc(Nc3c(Cl)cccc3Cl)[nH]c2cc1Cl [Example 58, 2-(2,6-Dichloro-phenylamino)-6-chloro-1H-benzimidazol-5-carboxylic acid indan-2-yl-amide]"
2,96%,"O=C(Nc1ccc(Br)c(F)c1)c1cc2nc(Nc3c(Cl)cccc3Cl)[nH]c2cc1Cl [Example 54, 2-(2,6-Dichloro-phenylamino)-6-chloro-1H-benzimidazol-5-carboxylic acid (4-bromo-3-fluoro-phenyl)-amide]"
3,97%,"O=C(N[C@H]1CC[C@H](C(F)(F)F)CC1)c1cc2nc(Nc3c(Cl)cc(F)cc3Cl)[nH]c2cc1OCC(F)F [Example 587, 2-(2,6-Dichloro-4-fluoro-phenylamino)-N-(trans-4-trifluoromethyl-cyclohex-1-yl)-6-(2,2-difluoroethoxy)-1H-benzimidazole-5-carboxamide]"
4,93%,"COc1cccnc1CNC(=O)c1cc2nc(Nc3c(Cl)cccc3Cl)n(C)c2cc1F [Example 529, 2-(2,6-Dichlorophenylamino)-6-fluoro-N-((3-methoxypyridin-2-yl)methyl)-1-methyl-1H-benzimidazole-5-carboxamide]"
5,99%,"CCOc1cc2c(cc1C(=O)NC1CCC3(CC1)CC3)nc(Nc1c(Cl)ccc(Cl)c1F)n2C [Example 609, 2-(3,6-Dichloro-2-fluoro-phenylamino)-6-ethoxy-N-(spiro[2.5]oct-6-yl)-1-methyl-1H-benzimidazole-5-carboxamide]"
6,98%,"Cc1nc(NC(=O)c2ccc3c(c2)nc(Nc2c(Cl)cccc2Cl)n3C)cc2c1CCCC2 [Example 139, 2-(2,6-Dichloro-phenylamino)-1-methyl-1H-benzimidazole-5-carboxylic acid (1-methyl-5,6,7,8-tetrahydro-isoquinolin-3-yl)-amide]"
7,100%,"COc1cc2[nH]c(Nc3c(Cl)ccc(Cl)c3F)nc2cc1C(=O)N[C@H]1CC[C@H](C(F)(F)F)CC1 [Example 617, 2-(3,6-Dichloro-2-fluoro-phenylamino)-6-methoxy-N-(4-trans-trifluoromethyl-cyclohex-1-yl)-1H-benzimidazole-5-carboxamide]"
8,94%,"O=C(Nc1cc(Cl)ccn1)c1ccc2c(c1)nc(Nc1c(Cl)cccc1Cl)n2CCN1CCCC1=O [Example 267, 2-(2,6-Dichloro-phenylamino)-1-[2-(2-oxo-pyrrolidin-1-yl)-ethyl]-1H-benzimidazole-5-carboxylic acid (4-chloro-pyridin-2-yl)-amide]"
9,91%,"Cn1c(Nc2c(Cl)cccc2Cl)nc2cc(C(=O)Nc3cc(N4CCCCC4)ccn3)c(F)cc21 [Example 533, 2-(2,6-Dichlorophenylamino)-6-fluoro-1-methyl-N-(4-(piperidin-1-yl)-pyridin-2-yl)-1H-benzimidazole-5-carboxamide]"
10,99%,"Cc1cc(NC(=O)c2ccc3nc(Nc4c(Cl)cccc4Cl)[nH]c3c2)ccn1 [Example 193, 2-(2,6-Dichloro-phenylamino)-3H-benzimidazole-5-carboxylic acid (2-methyl-pyridin-4-yl)-amide]"
11,100%,"Cc1ccc(Cl)c(Nc2nc3cc(C(=O)Nc4ccc(Br)cc4)ccc3[nH]2)c1Cl [Example 322, 2-(2,6-Dichloro-3-methyl-phenylamino)-1H-benzimidazole-5-carboxylic acid (4-bromo-phenyl)-amide]"
12,100%,"CCCC[C@H](C)NC(=O)c1cc2nc(Nc3c(Cl)cccc3Cl)[nH]c2cc1F [Example 443, (S)-2-(2,6-Dichlorophenylamino)-6-fluoro-N-(hexan-2-yl)-1H-benzimidazole-5-carboxamide]"
13,64%,"O=C(NC1CCCC(O)C1)c1ccc2[nH]c(Nc3c(Cl)cccc3Cl)nc2c1 (centres unmarked) [Example 226, 2-(2,6-Dichloro-phenylamino)-1H-benzimidazole-5-carboxylic acid (3-hydroxy-cyclohexyl)-amide]"
14,100%,"CN(C)CCCn1c(Nc2c(Cl)cccc2Cl)nc2cc(C(=O)Nc3cc(Cl)ccn3)ccc21 [Example 276, 2-(2,6-Dichloro-phenylamino)-1-(3-dimethylamino-propyl)-1H-benzimidazole-5-carboxylic acid (4-chloro-pyridin-2-yl)-amide]"
15,97%,"O=C(Nc1ccc(Br)cc1)c1cc2nc(Nc3c(Cl)ccc(Cl)c3F)[nH]c2cc1OCC(F)(F)F [Example 593, 2-(3,6-Dichloro-2-fluoro-phenylamino)-N-(4-bromophenyl)-6-(2,2,2-trifluorethoxy)-1H-benzimidazole-5-carboxamide]"
16,100%,"O=C(Nc1ccc(Br)cc1)c1cc2nc(Nc3c(Cl)cc(F)cc3Cl)[nH]c2cc1OCC(F)(F)F [Example 582, 2-(2,6-Dichloro-4-fluoro-phenylamino)-N-(4-bromo-phenyl)-6-(2,2,2-trifluorethoxy)-1H-benzimidazole-5-carboxamide]"
17,96%,"Cn1c(Nc2c(Cl)cccc2Cl)nc2cc(C(=O)NC3CCC(F)(F)CC3)ccc21 [Example 249, 2-(2,6-Dichloro-phenylamino)-1-methyl-1H-benzimidazole-5-carboxylic acid (4,4-difluoro-cyclohexyl)-amide]"

row,inhibition at 10 µM,Structure (SMILES)
1,96%,"Cn1c(Nc2c(Cl)cccc2Cl)nc2cc(C(=O)NCCCC3CC3)c(F)cc21 [Example 398, N-(3-Cyclopropylpropyl)-2-(2,6-dichlorophenylamino)-6-fluoro-1-methyl-1H-benzimidazole-5-carboxamide]"
2,85%,Cc1cccc(NC(=O)c2ccc3[nH]c(Nc4c(Cl)cccc4Cl)nc3c2)n1 [compound 336]
3,99%,"Cc1cc(NC(=O)c2ccc3[nH]c(Nc4c(Cl)cccc4Cl)nc3c2)ncc1Br [Example 182, 2-(2,6-Dichloro-phenylamino)-1H-benzimidazole-5-carboxylic acid (5-bromo-4-methyl-pyridin-2-yl)-amide]"
4,91%,"COc1cc2[nH]c(Nc3c(Cl)ccc(Cl)c3F)nc2cc1C(=O)NC1CCC2(CC1)CC2 [Example 613, 2-(3,6-Dichloro-2-fluoro-phenylamino)-N-(spiro[2.5]oct-6-yl)-6-methoxy-1H-benzimidazole-5-carboxamide]"
5,100%,"O=C(NCC1CCCC1)c1ccc2[nH]c(Nc3c(Cl)cccc3Cl)nc2c1 [Example 219, 2-(2,6-Dichloro-phenylamino)-1H-benzimidazole-5-carboxylic acid cyclopentylmethyl-amide]"
6,84%,"Cn1c(Nc2c(Cl)cccc2Cl)nc2cc(C(=O)NCCc3ccncc3)ccc21 [Example 260, 2-(2,6-Dichloro-phenylamino)-1-methyl-1H-benzimidazole-5-carboxylic acid (2-pyridin-4-yl-ethyl)-amide]"
7,100%,Cc1cc2[nH]c(Nc3c(Cl)cccc3Cl)nc2cc1C(=O)NC1CCC(C(C)(C)C)CC1 (centres unmarked) [compound 148]
8,100%,"CC(C)(C)[C@H]1CC[C@H](NC(=O)c2cc3nc(Nc4c(F)cccc4Cl)[nH]c3cc2F)CC1 [Example 357, N-((1r,4r)-4-tert.-Butylcyclohexyl)-2-(2-chloro-6-fluorophenylamino)-6-fluoro-1H-benzimidazole-5-carboxamide]"
9,100%,"Cc1c[n+]([O-])c(NC(=O)c2ccc3nc(Nc4c(Cl)cccc4Cl)[nH]c3c2)cc1Cl [Example 418, 4-Chloro-2-(2-(2,6-dichlorophenylamino)-1H-benzimidazole-6-carboxamido)-5-methylpyridine 1-oxide]"
10,100%,CC(C)[C@H]1CC[C@H](NC(=O)c2cc3nc(Nc4c(Cl)cccc4Cl)[nH]c3cc2F)CC1 [Example 375]
11,100%,COc1cc2nc(Nc3c(Cl)cccc3Cl)[nH]c2cc1C(=O)Nc1ccc(Cl)c(F)c1 [Example 197]
12,97%,"CC1(C)CCC(NC(=O)c2ccc3[nH]c(Nc4c(Cl)cccc4Cl)nc3c2)CC1 [Example 64, 2-(2,6-Dichloro-phenylamino)-1H-benzimidazole-5-carboxylic acid (4,4-dimethyl-cyclohexyl)-amide]"
13,95%,"O=C(NC1CCCCC1)c1cc(Br)c2[nH]c(Nc3c(Cl)cccc3Cl)nc2c1 [Example 514, 7-Bromo-N-cyclohexyl-2-(2,6-dichlorophenylamino)-1H-benzimidazole-5-carboxamide]"
14,97%,"O=C(Nc1cc(Cl)cc(Cl)c1)c1ccc2[nH]c(Nc3c(Cl)cccc3Cl)nc2c1 [Example 112, 2-(2,6-Dichloro-phenylamino)-1H-benzimidazole-5-carboxylic acid (3,5-dichloro-phenyl)-amide]"
15,100%,"CCCC[C@@H](C)NC(=O)c1cc2nc(Nc3c(Cl)cccc3Cl)[nH]c2cc1F [Example 457, (R)-2-(2,6-Dichlorophenylamino)-6-fluoro-N-(hexan-2-yl)-1H-benzimidazole-5-carboxamide]"
16,100%,"Cc1cc(C)nc(NC(=O)c2ccc3[nH]c(Nc4c(Cl)cccc4Cl)nc3c2)c1 [Example 117, 2-(2,6-Dichloro-phenylamino)-1H-benzimidazole-5-carboxylic acid (4,6-dimethyl-pyridin-2-yl)-amide]"
17,93%,"CCOc1cc2c(cc1C(=O)NC1CCC(C(F)(F)F)CC1)nc(Nc1c(Cl)ccc(Cl)c1F)n2C (stereo not drawn) [Example 605, 2-(3,6-Dichloro-2-fluoro-phenylamino)-6-ethoxy-N-(4-trans-trifluoromethyl-cyclohex-1-yl)-1-methyl-1H-benzimidazole-5-carboxamide]"
